Laboratory results published in patent publication US20260199350A1, “FLAVONES, QUINOLINONES, QUINAZOLINONES, AND AURONES, AND USES IN CK2-MEDIATED DISEASES” (Salk Institute for Biological Studies, priority 2022, published 2026).
Read-outs that look alike come from different tables or passages of the source.

Tests used:
CK2A2 = target: T1, CK2A2 (Homo sapiens, UniProt P19784); assay: Radiometric kinase assay (Eurofins), CK2A2; type: biochemical; details: read-out: CK2A2 RAD IC50
T1 construct: purchased Eurofins
T1 sequence (P19784 whole entry): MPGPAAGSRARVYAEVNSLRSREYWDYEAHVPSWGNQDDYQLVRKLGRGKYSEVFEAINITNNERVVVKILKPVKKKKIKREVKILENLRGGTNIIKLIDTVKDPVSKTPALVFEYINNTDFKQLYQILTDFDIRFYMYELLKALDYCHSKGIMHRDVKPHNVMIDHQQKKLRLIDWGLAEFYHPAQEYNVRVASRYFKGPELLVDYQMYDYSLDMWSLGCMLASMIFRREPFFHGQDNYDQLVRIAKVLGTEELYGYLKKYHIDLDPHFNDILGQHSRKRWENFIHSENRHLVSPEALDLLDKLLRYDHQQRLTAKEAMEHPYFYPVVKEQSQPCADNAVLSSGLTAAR
Text: (§1) • ^1Radiometric kinase assay from Eurofins. Performed in astrocytes with a Promega Lumit IL-6 kit.

CK2A1 = target: T2, CK2A1 (Homo sapiens, UniProt P68400); assay: Radiometric kinase assay (Eurofins), CK2A1; type: biochemical; details: read-out: CK2A1 RAD IC50
T2 construct: purchased Eurofins
T2 sequence (P68400 whole entry): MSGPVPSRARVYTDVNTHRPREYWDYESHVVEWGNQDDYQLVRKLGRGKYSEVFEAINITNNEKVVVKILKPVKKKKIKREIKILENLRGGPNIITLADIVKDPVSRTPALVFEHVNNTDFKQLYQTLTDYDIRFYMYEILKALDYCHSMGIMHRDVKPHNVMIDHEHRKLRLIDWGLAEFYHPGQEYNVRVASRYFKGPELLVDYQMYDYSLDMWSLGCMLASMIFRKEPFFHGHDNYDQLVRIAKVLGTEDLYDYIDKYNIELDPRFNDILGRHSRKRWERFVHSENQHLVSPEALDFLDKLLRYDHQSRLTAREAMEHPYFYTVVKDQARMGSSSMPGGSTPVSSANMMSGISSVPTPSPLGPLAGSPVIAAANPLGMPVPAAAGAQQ
Text: FIGS. 4A-4F characterize flavones for in vitro and in-cell CK2 inhibition. […] Representative of two independent experiments. […] Nonlinear fit was used to calculate IC50. […] Nonlinear fit was used to calculate IC50. […] Nonlinear fit was used to calculate IC50. […] Normalized to DMSO, data are representative of three independent experiments.
as §1

IL-6 secretion = IL-6 secretion assay in astrocytes (Promega Lumit IL-6 kit); type: cell-based, human; details: Homo sapiens, Astrocyte; Table 2; astrocytes; read-out: IL6-Inhib.
Description: IL-6 secretion assay. HCAs were plated at 20,000 cells per well in white clear bottom 96-well plates. Two to three days later, media was removed and replaced with media containing 10 ng/mL IL1B and compound dilution series. Five hours later, plates were processed using the Lumit IL-6 Assay Kit (Promega W6030) according to the manufacturer's instructions.
• ^1Radiometric kinase assay from Eurofins. Performed in astrocytes with a Promega Lumit IL-6 kit. A series of halogenated flavones was generated and assayed (Table 3).

| Structure (SMILES) | IC50 (CK2A2; Table 12) | IC50 (CK2A1; Table 12) | IC50 (CK2A2; Table 8, quinazolinones) | IC50 (CK2A1; Table 8, quinazolinones) | other results |
| --- | --- | --- | --- | --- | --- |
| COc1ccc2c(c1Br)O/C(=C\c1ccc(O)c(OC)n1)C2=O [Compound 1188A] | 144 nM | 465 nM | – | – | – |
| COc1cc(/C=C2\Oc3c(ccc(OC)c3Br)C2=O)ncc1O [Compound 1189A] | 149 nM | 117 nM | – | – | – |
| COc1ccc2c(c1Br)O/C(=C\c1cc(Br)c(O)cn1)C2=O [Compound 1190B] | 46 nM | 184 nM | – | – | – |
| O=C(O)c1ccc(/C=C2\Oc3c(Br)cccc3C2=O)cc1 [Compound 1210A] | 60 nM | 703 nM | – | – | – |
| C#Cc1cc(-c2cc(=O)c3cc(Br)c(OC)c(Br)c3o2)ccc1O [Compound 1212A] | 1260 nM | > 5000 nM | – | – | – |
| O=C1/C(=C/c2ccc(O)c(C3CC3)c2)Oc2c(Br)cccc21 [Compound 1220A] | > 5000 nM | 4450 nM | – | – | – |
| C#Cc1cc(/C=C2\Oc3c(Br)cc(Br)cc3C2=O)ccc1O [Compound 1224A] | 77 nM | 177 nM | – | – | – |
| COc1nc(/C=C2\Oc3c(Br)cccc3C2=O)ccc1O [Compound 1226A] | 91 nM | 131 nM | – | – | – |
| C#Cc1cc(/C=C2\Oc3c(cc(Br)c(OC)c3Br)C2=O)ccc1O [Compound 1229A] | 49 nM | 151 nM | – | – | – |
| C#Cc1cc(/C=C2\Oc3c(ccc(OC)c3Br)C2=O)ccc1O [Compound 1231A] | 206 nM | 180 nM | – | – | – |
| COc1cc(/C=C2\Oc3c(Br)cccc3C2=O)ncc1O [Compound 1236B] | 141 nM | 172 nM | – | – | – |
| O=C1/C(=C/c2cc(Br)c(O)cn2)Oc2c(Br)cccc21 [Compound 1237A] | 57 nM | 67 nM | – | – | – |
| COc1cc(-c2cc(=O)c3cc(Br)cc(Br)c3o2)ncc1O [JKT.77A] | – | – | – | – | IC50 (CK2A2; Table 2): 19 nM; IC50 (IL-6 secretion): 6700 nM; IC50 (CK2A1; Table 2): 21 nM |
| O=c1cc(-c2ccc(O)c(C(F)(F)F)c2)oc2c(Br)cc(Br)cc12 [JKT.460A] | – | – | – | – | IC50 (CK2A2; Table 2): 129 nM; IC50 (IL-6 secretion): 3000 nM; IC50 (CK2A1; Table 2): 609 nM |
| O=c1cc(-c2cc(F)c(O)c(F)c2)oc2c(Br)cc(Br)cc12 [JKT.461B] | – | – | – | – | IC50 (CK2A2; Table 2): 32 nM; IC50 (IL-6 secretion): > 10000 nM; IC50 (CK2A1; Table 2): 76 nM |
| Cn1c(-c2ccc(O)c(Br)c2)nc2c(Br)cccc2c1=O [JKT.866A] | – | – | > 5000 nM | 4590 nM | – |
| Cn1c(-c2ccc(O)c(Cl)c2)nc2c(Br)cccc2c1=O [JKT.870A] | – | – | > 5000 nM | > 5000 nM | – |
| Cn1c(-c2cc(F)c(O)c(F)c2)nc2c(Br)cccc2c1=O [JKT.873A] | – | – | 649 nM | 566 nM | – |
| O=c1cc(-c2ccc(O)c(Br)c2)oc2c(Br)nc(Br)cc12 [JKT.909A] | – | – | – | – | IC50 (CK2A2; Table 4): 6 nM; IC50 (CK2A1; Table 4): 6 nM |
| O=c1cc(-c2cc(Br)c(O)cn2)oc2c(Br)cc(Br)cc12 [JKT.923A] | – | – | – | – | IC50 (CK2A2; Table 4): 8 nM; IC50 (CK2A1; Table 4): 11 nM |
| O=c1cc(-c2ccc(O)c(Br)c2)[nH]c2c(Br)cc(Br)cc12 [JKT.944A] | – | – | – | – | IC50 (CK2A2; Table 6, quinolinones): 123 nM; IC50 (CK2A1; Table 6, quinolinones): 128 nM |
| O=c1cc(-c2cc(Br)c(O)cn2)oc2c(Br)cccc12 [JKT.980A] | – | – | – | – | IC50 (CK2A2; Table 4): 55 nM; IC50 (CK2A1; Table 4): 53 nM |

Further lines, with some results ahead:

| IC50 (CK2A2; Table 12) | IC50 (CK2A1; Table 12) | IC50 (CK2A2; Table 8, quinazolinones) | IC50 (CK2A1; Table 8, quinazolinones) | Structure (SMILES) | other results |
| --- | --- | --- | --- | --- | --- |
| – | – | > 5000 nM | > 5000 nM | Cn1c(-c2ccc(O)c(C(F)(F)F)c2)nc2c(Br)cc(Br)cc2c1=O [JKT.874D] | – |
| – | – | > 5000 nM | > 5000 nM | Cn1c(-c2ccc(O)c(C(F)(F)F)c2)nc2c(Br)cccc2c1=O [JKT.875A] | – |
| – | – | > 5000 nM | > 5000 nM | COc1cc(-c2nc3c(Br)cc(Br)cc3c(=O)n2C)ccc1O [JKT.876A] | – |
| – | – | > 5000 nM | > 5000 nM | COc1cc(-c2nc3c(Br)cccc3c(=O)n2C)ccc1O [JKT.877A] | – |
| – | – | 242 nM | 95 nM | O=c1[nH]c(-c2ccc(O)c(Br)c2)nc2c(Br)nc(Br)cc12 [JKT.880B] | – |
| – | – | 99 nM | 107 nM | O=c1[nH]c(-c2cc(Br)c(O)cn2)nc2c(Br)cc(Br)cc12 [JKT.932F] | – |
| – | – | 105 nM | 132 nM | O=c1[nH]c(-c2ccc(O)c(Cl)n2)nc2c(Br)cc(Br)cc12 [JKT.956A] | – |
| – | – | 33 nM | 27 nM | COc1nc(-c2nc3c(Br)cc(Br)cc3c(=O)[nH]2)ccc1O [JKT.968C] | – |
| – | – | 33 nM | 26 nM | COc1nc(-c2nc3c(Br)cccc3c(=O)[nH]2)ccc1O [JKT.975A] | – |
| – | – | 900 nM | 677 nM | COc1nc(-c2nc3c(Br)cc(Br)cc3c(=O)n2C)ccc1O [JKT.983A] | – |
